Common to all, as to format: cell-based
The test system of one assay is p15 protein. In words: Evaluation of p15 induction activity (Western blotting). The note with it: test substance 0.1 μM, 24 hrs, ACHN cells or HT-29 cells, compared to DMSO, n=2. In a few lines: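 p15 protein quantified by densitometry of anti-p15 Western blots (10 μg protein per lane, mean of n=2). Samples came from HT-29 or ACHN cells given 0.1 μM compound for 24 h after 24 h plating, with DMSO as control.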
A general note: A western blot detects proteins with antibodies after separation by electrophoresis.

For assay [1], the system named is Renal cancer cell line ACHN cell. Kind of assay: Growth inhibitory effect against cancer cell lines (3H-thymidine uptake), ACHN. Particulars: Homo sapiens, ACHN. In a few lines:
(§1)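 Cells seeded at 1.0×10^4/well, grown 24 hrs, then exposed to compound in DMSO for 18 hrs before 6 hrs pulse with ^3H-thymidine (0.25 μCi/well). Harvested cell-incorporated radioactivity counted; IC50 is the concentration halving uptake versus DMSO control, triplicate.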

In a further assay the test system is p27 protein. In words: p27 protein induction test (Western blotting). Particulars: test substance (0.1 1M), 24 hrs, ACHN cells or HT-29 cells, compared to DMSO, n=2. The protocol:
ACHN cells or HT-29 cells were cultured in a 6 well plate at 2.5×10^5 cells/1.8 mL/well for 24 hrs, a test substance ([…]) dissolved in DMSO was added. After 24 hrs, cells were detached using trypsin-EDTA (ethylene diamine tetraacetic acid) and solubilized with NuPAGE LDS sample buffer (Invitrogen). Using an RC DC protein assay kit (BIO-RAD), the protein concentration of the sample was quantitated, and a sample in an amount corresponding to 10 μg of BSA (bovine serum albumin) was analyzed by Western blotting using an anti-p27 antibody. The density of the band stained with the anti-p27 antibody was measured by a densitometer to quantify the amount of p27 protein. As a control, DMSO was used and the test was performed with n=2 and the average protein amount was determined.

The test system of assay [2] is colorectal cancer cell line HT-29 cells. In words: Growth inhibitory effect against cancer cell lines (3H-thymidine uptake), HT-29. Particulars: Homo sapiens, HT-29, inhibition of 3H-thymidine uptake; test substance 18 hrs, then 3H-thymidine 6 hrs; triplicate. The method in brief:
as §1

As a reminder, the fold induction is the signal under treatment as a multiple of the control signal. Lower therefore signals little rise in signal. The IC50 is the concentration needed to halve the response being measured. Read a high IC50 as a need for much substance. `C#Cc1ccc(Nc2cc(=O)n(C)c3c2c(=O)n(C2CC2)c(=O)n3-c2cccc(NS(=O)(=O)CCC)c2)c(F)c1` [Example 1-320]: the fold induction at 0.1 µM with p15 protein and with p27 protein was not below 1.5 throughout. In addition, the IC50 in assay [1] is 0.01 to 0.1 µM; in assay [2], less than 0.01 µM.
Regarding `Cc1c(=O)n(C)c(Nc2ccc(I)cc2F)c2c(=O)n(C3CC3)c(=O)n(-c3ccc(NS(C)(=O)=O)c(Cl)c3)c12` [Example 4-116], the fold induction at 0.1 µM in the assay on p15 protein and with p27 protein was not below 1.5 each time. In addition, the IC50 in assay [1] is 0.1 to 1 µM; in assay [2] it was less than 0.01 µM.
Consider `CC(=O)Nc1cccc(-n2c(=O)n(C3CC3)c(=O)c3c(Nc4ccc(C)cc4F)n(C)c(=O)c(C)c32)c1` [Example 4-56], for which the fold induction at 0.1 µM in the assay on p15 protein and in the assay on p27 protein was not below 1.5 each time. Moreover, the IC50 in assay [1] is 0.1 to 1 µM; in assay [2], 0.01 to 0.1 µM.
On to `Cc1c(=O)n(C)c(Nc2ccc(Br)cc2F)c2c(=O)n(C3CC3)c(=O)n(-c3cccc(NS(C)(=O)=O)c3)c12` [Example 3-4], for which the fold induction at 0.1 µM in the assay with p15 protein and in the assay with p27 protein was not below 1.5 throughout. For the same compound, the IC50 in assay [1] is 0.01 to 0.1 µM; in assay [2] it was less than 0.01 µM.
Take `CCCCC(=O)NCCC(=O)Nc1cccc(-n2c(=O)n(C3CC3)c(=O)c3c(Nc4ccc(I)cc4F)n(C)c(=O)c(C)c32)c1` [Example 4-12]: the fold induction at 0.1 µM in the assay on p15 protein and in the assay on p27 protein was not below 1.5 each time. Further, the IC50 in assay [1] is 0.01 to 0.1 µM; in assay [2], less than 0.01 µM.
As for `Cc1c(=O)n(C)c(Nc2ccc(I)cc2F)c2c(=O)n(C3CC3)c(=O)n(-c3ccc4c(c3)NC(=O)C4)c12` [Example 4-88], the fold induction at 0.1 µM with p15 protein and with p27 protein was not below 1.5 in each case. The IC50 in assay [1] and in assay [2] was less than 0.01 µM each time.
For `Cc1c(=O)n(C)c(Nc2ccc(I)cc2F)c2c(=O)n(C3CC3)c(=O)n(-c3cccc(N4CCOC4=O)c3)c12` [Example 4-125], the fold induction at 0.1 µM in the assay with p15 protein and in the assay on p27 protein was not below 1.5 throughout. Also, the IC50 in assay [1] and in assay [2] was less than 0.01 µM in each case.
Regarding `Cn1c(=O)cc(Nc2ccc(I)cc2)c2c(=O)n(C3CC3)c(=O)n(-c3ccccc3)c21` [Example 1-221], the fold induction at 0.1 µM in the assay with p15 protein and with p27 protein was not below 1.5 each time. Besides, the figures for the IC50 in assay [1] and in assay [2] were 0.01 to 0.1 µM and less than 0.01 µM, respectively.
`C#Cc1ccc(Nc2cc(=O)n(C)c3c2c(=O)n(C2CC2)c(=O)n3-c2cccc(NS(=O)(=O)CC)c2)c(F)c1` [Example 1-289]: the fold induction at 0.1 µM in the assay with p15 protein and in the assay with p27 protein was not below 1.5 throughout. In addition, the IC50 in assay [1] and in assay [2] was less than 0.01 µM in each case.
Consider `CCn1c(=O)c2c(Nc3ccc(I)cc3F)n(C)c(=O)c(C)c2n(-c2cccc(NC(C)=O)c2)c1=O` [Example 4-21], for which the fold induction at 0.1 µM in the assay on p15 protein and with p27 protein was not below 1.5 each time. For the same compound, the IC50 in assay [1] is 0.01 to 0.1 µM; in assay [2] it was less than 0.01 µM.
Take `Cn1c(=O)cc(Nc2ccc(CCF)cc2)c2c(=O)n(C3CC3)c(=O)n(-c3ccccc3)c21` [Example 1-293]: the fold induction at 0.1 µM in the assay with p15 protein and with p27 protein was not below 1.5 in each case. Also, the IC50 in assay [1] and in assay [2] was 0.1 to 1 µM in each case.
For the compound `CCc1ccc(Nc2c3c(=O)n(C)c(=O)n(-c4cccc(NC(C)=O)c4)c3c(C)c(=O)n2C)c(F)c1` [Example 4-50], the fold induction at 0.1 µM in the assay on p15 protein and in the assay with p27 protein was not below 1.5 in each case. The IC50 in assay [1] was in the range of 0.1 to 1 µM; in assay [2] it was 0.01 to 0.1 µM.
As to `CCS(=O)(=O)c1cccc(-n2c(=O)n(C3CC3)c(=O)c3c(Nc4ccc(Br)cc4F)n(C)c(=O)c(C)c32)c1` [Example 4-10], the fold induction at 0.1 µM in the assay on p15 protein and in the assay on p27 protein was not below 1.5 in each case. For the same compound, the IC50 in assay [1] lay within 0.1 to 1 µM; in assay [2] it was 0.01 to 0.1 µM.
For `C#Cc1ccc(Nc2c3c(=O)n(C4CC4)c(=O)n(-c4ccc(NS(C)(=O)=O)cc4)c3c(C)c(=O)n2C)c(F)c1` [Example 4-76], the fold induction at 0.1 µM in the assay with p15 protein and in the assay with p27 protein was not below 1.5 each time. The figures for the IC50 in assay [1] and in assay [2] were 0.01 to 0.1 µM and less than 0.01 µM, respectively.
With `CC(=O)Nc1cccc(-n2c(=O)n(C3CC3)c(=O)c3c(Nc4ccc(C(C)C)cc4F)n(C)c(=O)c(C)c32)c1` [Example 4-98], the fold induction at 0.1 µM in the assay on p15 protein and with p27 protein was not below 1.5 in each case. For the same compound, the IC50 in assay [1] was 0.01 to 0.1 µM; in assay [2], less than 0.01 µM.
For `C#Cc1ccc(Nc2cc(=O)n(C)c3c2c(=O)n(C2CC2)c(=O)n3-c2cccc(NS(=O)(=O)CC)c2)cc1` [Example 1-298], the fold induction at 0.1 µM in the assay with p15 protein and with p27 protein was not below 1.5 in each case. Besides, the concentration for half-maximal inhibition (IC50) was 0.01 to 0.1 µM in assay [1] and less than 0.01 µM in assay [2].
Take `Cc1cc(N(C)C)ccc1Nc1cc(=O)n(C)c2c1c(=O)n(C1CC1)c(=O)n2-c1ccccc1` [Example 1-112]: the fold induction at 0.1 µM with p15 protein and with p27 protein was not below 1.5 each time. The figures for the IC50 in assay [1] and in assay [2] were 0.1 to 1 µM and 0.01 to 0.1 µM, respectively.
With `Cn1c(=O)cc(Nc2ccc(Br)cc2F)c2c(=O)n(C3CC3)c(=O)n(-c3cccc(NS(C)(=O)=O)c3)c21` [Example 1-1, N-{3-[5-(4-bromo-2-fluoro-phenylamino)-3-cyclopropyl-8-methyl-2,4,7-trioxo-3,4,7,8-tetrahydro-2H-pyrido[2,3-d]pyrimidin-1-yl]phenyl}-methanesulfonamide], the fold induction at 0.1 µM in the assay on p15 protein and with p27 protein was not below 1.5 in each case. In addition, the values for the IC50 in assay [1] and in assay [2] were 0.01 to 0.1 µM and less than 0.01 µM, respectively.
For `CONC(=O)Nc1cccc(-n2c(=O)n(C3CC3)c(=O)c3c(Nc4ccc(Br)cc4F)cc(=O)n(C)c32)c1` [Example 1-327], the fold induction at 0.1 µM in the assay with p15 protein and in the assay on p27 protein was not below 1.5 in each case. Besides, the half-maximal inhibitory concentration (IC50) lay in the range of 0.1 to 1 µM in assay [1] and 0.01 to 0.1 µM in assay [2].
In the case of `CSc1ccc(Nc2cc(=O)n(C)c3c2c(=O)n(C2CC2)c(=O)n3-c2cccc(NC(C)=O)c2)c(F)c1` [Example 1-341], the fold induction at 0.1 µM in the assay with p15 protein and in the assay on p27 protein was not below 1.5 in each case. Also, the IC50 in assay [1] was 0.01 to 0.1 µM; in assay [2], less than 0.01 µM.
With `CSc1ccc(Nc2c3c(=O)n(C4CC4)c(=O)n(-c4cccc(NS(N)(=O)=O)c4)c3c(C)c(=O)n2C)c(F)c1` [Example 4-120], the fold induction at 0.1 µM with p15 protein and in the assay on p27 protein was not below 1.5 in each case. The IC50 in assay [1] is 0.01 to 0.1 µM; in assay [2], less than 0.01 µM.
As for `C#Cc1ccc(Nc2c3c(=O)n(C4CC4)c(=O)n(-c4ccc(F)c(NC(C)=O)c4)c3c(C)c(=O)n2C)c(F)c1` [Example 4-102], the fold induction at 0.1 µM in the assay with p15 protein and in the assay on p27 protein was not below 1.5 each time. The IC50 in assay [1] is 0.1 to 1 µM; in assay [2], 0.01 to 0.1 µM.
In the case of `Cn1c(=O)cc(Nc2ccc(CCF)cc2F)c2c(=O)n(C3CC3)c(=O)n(-c3cccc(NS(C)(=O)=O)c3)c21` [Example 1-338], the fold induction at 0.1 µM in the assay with p15 protein and in the assay with p27 protein was not below 1.5 throughout. Further, the IC50 in assay [1] is 0.01 to 0.1 µM; in assay [2], less than 0.01 µM.
Turning to `Cn1c(=O)cc(Nc2ccc(C3CC3)cc2F)c2c(=O)n(C3CC3)c(=O)n(-c3ccccc3)c21` [Example 1-265], the fold induction at 0.1 µM in the assay on p15 protein and in the assay on p27 protein was not below 1.5 in each case. In addition, the IC50 in assay [1] fell in the range of 0.1 to 1 µM; in assay [2] it was 0.01 to 0.1 µM.
`CCNS(=O)(=O)c1cccc(-n2c(=O)n(C3CC3)c(=O)c3c(Nc4ccc(Br)cc4F)cc(=O)n(C)c32)c1` [Example 1-295]: the fold induction at 0.1 µM in the assay on p15 protein and with p27 protein was not below 1.5 each time. Besides, the IC50 in assay [1] is 0.1 to 1 µM; in assay [2], 0.01 to 0.1 µM.
Take `C#Cc1ccc(Nc2c3c(=O)n(C4CC4)c(=O)n(-c4ccc(NC(C)=O)cc4)c3c(C)c(=O)n2C)c(F)c1` [Example 4-71]: the fold induction at 0.1 µM in the assay on p15 protein and in the assay on p27 protein was not below 1.5 each time. Besides, the IC50 in assay [1] fell in the range of 0.1 to 1 µM; in assay [2], 0.01 to 0.1 µM.
For the compound `C=Cc1ccc(Nc2cc(=O)n(C)c3c2c(=O)n(C2CC2)c(=O)n3-c2ccccc2)c(F)c1` [Example 1-240], the fold induction at 0.1 µM with p15 protein and in the assay on p27 protein was not below 1.5 throughout. Besides, the IC50 in assay [1] and in assay [2] was 0.01 to 0.1 µM each time.
On to `Cn1c(=O)cc(Nc2ccc(Br)cc2F)c2c(=O)n(C3CC3)c(=O)n(-c3cccc(S(=O)(=O)N4CCCCC4)c3)c21` [Example 1-317], for which the fold induction at 0.1 µM in the assay on p15 protein and in the assay on p27 protein was not below 1.5 in each case. Besides, the values for the IC50 in assay [1] and in assay [2] were 0.1 to 1 µM and 0.01 to 0.1 µM, respectively.
For `Cc1c(=O)n(C)c(Nc2ccc(I)cc2F)c2c(=O)n(C3CC3)c(=O)n(-c3cccc(N4CCNC4=O)c3)c12` [Example 4-124], the fold induction at 0.1 µM with p15 protein and with p27 protein was not below 1.5 each time. The results for the IC50 in assay [1] and in assay [2] were 0.01 to 0.1 µM and less than 0.01 µM, respectively.

(Values after patent US20180273531A1, “PYRIMIDINE COMPOUND AND MEDICAL USE THEREOF” (Japan Tobacco Inc., priority 2004, published 2018).)
